The nature of this data set: method code SF, from DOI: 10.1021/js960111p, PMID: 9002468. As to conditions: for logD: pH 12.0.

Take `Oc1ccc2[nH]ccc2c1`: the logP turned out to be 1.29.

For the molecule `Cc1ccc2[nH]ccc2c1`, the logP came to 2.67.

With `Cn1c2ccccc2c2ccccc21`, the logD is 3.99.

The molecule `c1ccc2c(c1)[nH]c1cnccc12` yielded a logD of 2.65.

As for `COc1ccc2c3c([nH]c2c1)C(C)NCC3` (stereo not drawn), the logD turned out to be 1.37.

For the molecule `CC1NCCc2c1[nH]c1ccc(Cl)cc21` (stereo not drawn), the logD stood at 2.3.

`COc1ccc2[nH]c3c(c2c1)CCNC3C` (stereo not drawn) returned a logD of 1.15.

As for `Cc1nccc2c3ccccc3n(C)c12`, the logD came to 3.01.

Turning to `Cc1ccc2[nH]c(C)cc2c1`, the logP turned out to be 3.02.

Consider `NCCc1c[nH]c2ccccc12`, for which the logD amounted to 1.35.

In the case of `Clc1ccc2[nH]ccc2c1`, the logP is 2.93.

In the case of `CC1NCCc2c1[nH]c1ccccc21` (stereo not drawn), the logD is 2.06.

On to `CC1NCCc2c1[nH]c1ccc([N+](=O)[O-])cc21` (stereo not drawn), for which the logD came out at 2.07.

`c1ccc2c3c([nH]c2c1)CCCC3` returned a logP of 3.

`COc1ccc2[nH]ccc2c1` displayed a logP of 2.08.

On to `Cc1nccc2c1[nH]c1ccccc12`, for which the logD is 2.89.

Molecule `c1ccc2c3c([nH]c2c1)CNCC3` displayed a logD of 1.98.

Molecule `Cn1ccc2ccccc21` registered a logP of 2.55.

The values above are taken from the SangsterLogP compilation.
